Data taken from ChEMBL document CHEMBL1201862, “PubChem BioAssay data set” (2004).
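Following 48 hours of exposure in 96-well plates, responses at five concentrations were used to interpolate endpoints linearly. GI50 = concentration required for 50% inhibition of growth.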 Active and inactive are the calls of the source. No stated cut-off is given here; in the data, active = GI50 up to about 1.1 µM and inactive = higher.

How the values were obtained:
Assay in all cases: DTP human tumour cell line panel, 48 h
[1] = system: SK-MEL-2
[2] = system: BT-549
[3] = system: Hs-578T
[4] = system: K562
[5] = system: IGROV-1
[6] = system: OVCAR-4
[7] = system: MDA-MB-435
[8] = system: SNB-75
[9] = system: MOLT-4
[10] = system: HL-60
[11] = system: HOP-92
[12] = system: KM12
[13] = system: SF-268
[14] = system: SNB-19
[15] = system: OVCAR-8
[16] = system: MCF7
[17] = system: SF-539
[18] = system: HCT-15
[19] = system: SK-MEL-28
[20] = system: RPMI-8226
[21] = system: Malme-3M
[22] = system: ACHN
[23] = system: HOP-62
[24] = system: HT-29
[25] = system: NCI-H226
[26] = system: T47D
[27] = system: SK-MEL-5
[28] = system: RXF 393
[29] = system: OVCAR-3
[30] = system: SW-620
[31] = system: EKVX
[32] = system: UO-31
[33] = system: CAKI-1
[34] = system: HCC 2998
[35] = system: MDA-MB-231
[36] = system: A498
[37] = system: A549
[38] = system: SR
[39] = system: NCI/ADR-RES
[40] = system: SN12C
[41] = system: LOX IMVI
[42] = system: 786-0
[43] = system: NCI-H23
[44] = system: M14
[45] = system: TK-10
[46] = system: UACC-62
[47] = system: NCI-H460
[48] = system: COLO 205
[49] = system: UACC-257
[50] = system: OVCAR-5
[51] = system: MDA-N
[52] = system: PC-3
[53] = system: HCT-116
[54] = system: DU-145
[55] = system: SF-295
[56] = system: NCI-H522
[57] = system: U-251
[58] = system: SK-OV-3
[59] = system: CCRF-CEM

SMILES: CN(C)CCSC1=Nc2ccc(Cl)cc2C(c2ccccc2Cl)=NC1
- GI50 [1]: > 100 µM (inactive)
- GI50 [2]: 42.3 µM (inactive)
- GI50 [3]: 21.4 µM (inactive)
- GI50 [4]: 34.6 µM (inactive)
- GI50 [5]: 92.5 µM (inactive)
- GI50 [6]: > 100 µM (inactive)
- GI50 [7]: 17.9 µM (inactive)
- GI50 [8]: 30.1 µM (inactive)
- GI50 [9]: 31.4 µM (inactive)
- GI50 [10]: 30.3 µM (inactive)

SMILES: C[C@H]1C[C@H](C)c2ccccc2N(C)/C1=N\c1ccccc1
- GI50 [11]: 8.51 µM (inactive)
- GI50 [12]: 43.3 µM (inactive)
- GI50 [1]: 20.5 µM (inactive)
- GI50 [13]: 56 µM (inactive)
- GI50 [14]: 37.8 µM (inactive)
- GI50 [3]: 24.7 µM (inactive)
- GI50 [15]: 43.2 µM (inactive)
- GI50 [4]: 66.7 µM (inactive)
- GI50 [5]: 21.9 µM (inactive)
- GI50 [16]: 25.1 µM (inactive)
- GI50 [17]: 30.2 µM (inactive)
- GI50 [18]: 37.2 µM
- GI50 [19]: 28.1 µM (inactive)
- GI50 [20]: 36.7 µM (inactive)
- GI50 [21]: 22.6 µM (inactive)
- GI50 [22]: 34.4 µM (inactive)
- GI50 [23]: 19.3 µM (inactive)
- GI50 [24]: 4.58 µM (inactive)
- GI50 [25]: 24.5 µM (inactive)
- GI50 [26]: 32.8 µM (inactive)
- GI50 [27]: 16.7 µM (inactive)
- GI50 [6]: > 100 µM (inactive)
- GI50 [28]: 34.6 µM (inactive)
- GI50 [7]: 20.4 µM (inactive)
- GI50 [29]: 28.1 µM (inactive)
- GI50 [30]: 61.5 µM (inactive)
- GI50 [31]: 25.5 µM (inactive)
- GI50 [32]: 39 µM (inactive)
- GI50 [33]: 63.1 µM (inactive)
- GI50 [34]: 39.2 µM (inactive)
- GI50 [35]: 14.8 µM (inactive)
- GI50 [36]: 25.2 µM (inactive)
- GI50 [37]: 34.7 µM (inactive)
- GI50 [38]: 24.4 µM (inactive)
- GI50 [39]: 27.2 µM (inactive)
- GI50 [40]: 36.6 µM (inactive)
- GI50 [41]: 13.7 µM (inactive)
- GI50 [42]: 22.9 µM (inactive)
- GI50 [8]: 57.1 µM (inactive)
- GI50 [43]: 20.4 µM (inactive)
- GI50 [44]: 21.5 µM (inactive)
- GI50 [45]: 18.6 µM (inactive)
- GI50 [9]: 22.5 µM (inactive)
- GI50 [10]: 3.93 µM (inactive)
- GI50 [46]: 23.5 µM (inactive)
- GI50 [47]: 15.8 µM (inactive)
- GI50 [48]: 18.4 µM (inactive)
- GI50 [49]: 20.3 µM (inactive)
- GI50 [50]: 21.4 µM (inactive)
- GI50 [51]: 23.4 µM (inactive)
- GI50 [52]: 29.9 µM (inactive)
- GI50 [53]: 13.3 µM (inactive)
- GI50 [54]: 92 µM (inactive)
- GI50 [55]: 26.4 µM (inactive)

SMILES: CC1OC2=N[C@@H]1C(=O)N[C@@H](C(C)C)C1=N[C@H](C(=O)N[C@@H](C(C)C)C3=N[C@H](C(=O)N[C@@H](C(C)C)C4=N[C@H](C(=O)N[C@H]2C(C)C)C(C)O4)C(C)O3)C(C)O1 (some centres undefined)
- GI50 [11]: > 10 µM (inactive)
- GI50 [56]: > 10 µM (inactive)
- GI50 [12]: > 10 µM (inactive)
- GI50 [1]: > 10 µM (inactive)
- GI50 [13]: > 10 µM (inactive)
- GI50 [14]: > 10 µM (inactive)
- GI50 [3]: > 10 µM (inactive)
- GI50 [15]: > 10 µM (inactive)
- GI50 [57]: > 10 µM (inactive)
- GI50 [4]: > 10 µM (inactive)
- GI50 [5]: > 10 µM (inactive)
- GI50 [16]: > 10 µM (inactive)
- GI50 [17]: > 10 µM (inactive)
- GI50 [18]: > 10 µM
- GI50 [19]: > 10 µM (inactive)
- GI50 [20]: > 10 µM (inactive)
- GI50 [21]: > 10 µM (inactive)
- GI50 [22]: > 10 µM (inactive)
- GI50 [23]: > 10 µM (inactive)
- GI50 [24]: > 10 µM (inactive)
- GI50 [25]: > 10 µM (inactive)
- GI50 [26]: > 10 µM (inactive)
- GI50 [27]: > 10 µM (inactive)
- GI50 [58]: > 10 µM (inactive)
- GI50 [59]: > 10 µM (inactive)
- GI50 [6]: > 10 µM (inactive)
- GI50 [28]: > 10 µM (inactive)
- GI50 [7]: > 10 µM (inactive)
- GI50 [29]: > 10 µM (inactive)
- GI50 [30]: > 10 µM (inactive)
- GI50 [31]: > 10 µM (inactive)
- GI50 [32]: > 10 µM (inactive)
- GI50 [33]: > 10 µM (inactive)
- GI50 [34]: > 10 µM (inactive)
- GI50 [35]: > 10 µM (inactive)
- GI50 [36]: > 10 µM (inactive)
- GI50 [38]: > 10 µM (inactive)
- GI50 [39]: > 10 µM (inactive)
- GI50 [40]: > 10 µM (inactive)
- GI50 [41]: > 10 µM (inactive)
- GI50 [42]: > 10 µM (inactive)
- GI50 [8]: > 10 µM (inactive)
- GI50 [43]: > 10 µM (inactive)
- GI50 [44]: > 10 µM (inactive)
- GI50 [45]: > 10 µM (inactive)
- GI50 [9]: > 10 µM (inactive)
- GI50 [10]: > 10 µM (inactive)
- GI50 [47]: > 10 µM (inactive)
- GI50 [48]: > 10 µM (inactive)
- GI50 [49]: > 10 µM (inactive)
- GI50 [50]: > 10 µM (inactive)
- GI50 [51]: > 10 µM (inactive)
- GI50 [52]: > 10 µM (inactive)
- GI50 [54]: > 10 µM (inactive)
- GI50 [55]: > 10 µM (inactive)
